Here are results for 17 compounds from patent publication US9527867B2, “Antibacterial biaromatic derivatives” (Actelion Pharmaceuticals Ltd., priority 2013, dated 2016).

Common to all, as to assay: Bacterial growth minimal inhibitory concentration (broth microdilution, CLSI M7-A7)
Format in all cases: cell-based

For assay [1], the system named is Acinetobacter baumannii T6474. As to conditions: multiply-resistant strain (in particular quinolone-resistant); for MIC: Acinetobacter baumannii, T6474, cation-adjusted Mueller-Hinton Broth; for MIC for A. baumannii T6474: cation-adjusted Mueller-Hinton Broth. As to the method: (§1) Minimal Inhibitory Concentrations (MICs; mg/L) were determined in cation-adjusted Mueller-Hinton Broth by a microdilution method following the description given in “Methods for Dilution Antimicrobial Susceptibility Tests for Bacteria that Grow Aerobically”, Approved standard, 7th ed., Clinical and Laboratory Standards Institute (CLSI) Document M7-A7, Wayne, Pa., USA (2006).
(§2) All Example compounds were tested against several Gram positive and Gram negative bacteria. […] Staphylococcus aureus A798, Enterococcus faecium A949 and Acinetobacter baumannii T6474 are multiply-resistant strains (in particular quinolone-resistant), while Moraxella catarrhalis A894 is a quinolone-sensitive strain and Staphylococcus aureus ATCC29213 is a methicillin-sensitive and quinolone-sensitive strain.

The subject of assay [2] is Enterococcus faecium A949. The note with it: multiply-resistant strain (in particular quinolone-resistant); for MIC: Enterococcus faecium, A949, cation-adjusted Mueller-Hinton Broth, read-out: MIC for E. faecium A949; for MIC for E. faecium A949: cation-adjusted Mueller-Hinton Broth. On the procedure:
as §1, §2

The test system of assay [3] is Moraxella catarrhalis A894. The note with it: quinolone-sensitive strain; for MIC: Moraxella catarrhalis, A894, cation-adjusted Mueller-Hinton Broth; for MIC for M. catarrhalis A894: cation-adjusted Mueller-Hinton Broth. As to the method: as §1, §2
The subject of assay [4] is Staphylococcus aureus A798. The note with it: multiply-resistant strain (in particular quinolone-resistant); for MIC: Staphylococcus aureus, A798, cation-adjusted Mueller-Hinton Broth, read-out: MIC for S. aureus A798; for MIC for S. aureus A798: cation-adjusted Mueller-Hinton Broth. On the procedure:
as §1, §2

For assay [5], the system named is Staphylococcus aureus ATCC29213. The note with it: methicillin-sensitive and quinolone-sensitive strain; for MIC: Staphylococcus aureus, ATCC29213, cation-adjusted Mueller-Hinton Broth, read-out: MIC for S. aureus ATCC29213; for MIC for S. aureus ATCC29213: cation-adjusted Mueller-Hinton Broth. As to the method: as §1, §2

Converted amounts (≈) assume the structure as drawn. Bounds are passed on as bounds.

Turning to `COc1cnnc(-c2cccc(CNCC[C@H]3CN(c4ccc5c(c4)NC(=O)CO5)C(=O)O3)c2)c1` [Example 81, 6-((S)-5-{2-[3-(5-methoxy-pyridazin-3-yl)-benzylamino]-ethyl}-2-oxo-oxazolidin-3-yl)-4H-benzo[1,4]oxazin-3-one], the MIC (commonly the lowest concentration found to suppress growth) in assay [1] is 1 µg/mL (≈ 2.1 µM); in assay [2], over 8 µg/mL; in assay [3] it was 0.063 µg/mL (≈ 0.132 µM); in assay [4], 1 µg/mL (≈ 2.1 µM); in assay [5] it was 0.5 µg/mL (≈ 1.05 µM).
For the compound `N#Cc1cccc(-c2cccc(CNCCc3cn(-c4ccc5c(n4)NC(=O)CO5)c(=O)o3)c2)c1` [Example 36, 3′-({2-[2-oxo-3-(3-oxo-3,4-dihydro-2H-pyrido[3,2-b][1,4]oxazin-6-yl)-2,3-dihydro-oxazol-5-yl]-ethylamino}-methyl)-biphenyl-3-carbonitrile], the MIC in assay [1] is 0.063 µg/mL (≈ 0.135 µM); in assay [2] it was 0.5 µg/mL (≈ 1.07 µM); in assay [3], at most 0.016 µg/mL; in assay [4], 0.063 µg/mL (≈ 0.135 µM); in assay [5] it was 0.063 µg/mL (≈ 0.135 µM).
Consider “6-(5-{2-[(3′-methoxy-biphenyl-3-ylmethyl)-amino]-ethyl}-2-oxo-oxazol-3-yl)-4H-pyrido[3,2-b][1,4]oxazin-3-one [Example 34]”, for which the “MIC for A. baumannii T6474” value in assay [1] was 0.25 µg/mL. Moreover, the “MIC for E. faecium A949” value in assay [2] stood at 1 µg/mL. Moreover, the “MIC for M. catarrhalis A894” value in assay [3] is recorded as “≦0.016 mg/L”. Also, the “MIC for S. aureus A798” value in assay [4] came to 0.125 µg/mL. Also, the “MIC for S. aureus ATCC29213” value in assay [5] stood at 0.125 µg/mL.
Turning to `COc1cc(C#N)cc(-c2cccc(CNCC[C@@H]3CN(c4ccc5c(c4)NC(=O)CS5)C(=O)O3)c2)c1` [Example 9, 5-methoxy-3′-({2-[(R)-2-oxo-3-(3-oxo-3,4-dihydro-2H-benzo[1,4]thiazin-6-yl)-oxazolidin-5-yl]-ethylamino}-methyl)-biphenyl-3-carbonitrile], the MIC was 0.25 µg/mL (≈ 0.486 µM) in assay [1]; 1 µg/mL (≈ 1.94 µM) in assay [2]; at most 0.016 µg/mL in assay [3]; 0.031 µg/mL (≈ 0.0602 µM) in assay [4]; 0.031 µg/mL (≈ 0.0602 µM) in assay [5].
As for `COc1cc(-c2cccc(CNCC[C@@H]3CN(c4ccc5c(c4)NC(=O)CS5)C(=O)O3)c2)ccc1O` [Example 7, 6-((R)-5-{2-[(4′-hydroxy-3′-methoxy-biphenyl-3-ylmethyl)-amino]-ethyl}-2-oxo-oxazolidin-3-yl)-4H-benzo[1,4]thiazin-3-one], the MIC is 1 µg/mL (≈ 1.98 µM) in assay [1]; 4 µg/mL (≈ 7.91 µM) in assay [2]; 0.063 µg/mL (≈ 0.125 µM) in assay [3]; 0.5 µg/mL (≈ 0.989 µM) in assay [4]; 0.5 µg/mL (≈ 0.989 µM) in assay [5].
On to `N#Cc1ncccc1-c1cccc(CNCC[C@H]2CN(c3ccc4c(n3)NC(=O)CO4)C(=O)O2)c1` [Example 73, 3-[3-({2-[(S)-2-oxo-3-(3-oxo-3,4-dihydro-2H-pyrido[3,2-b][1,4]oxazin-6-yl)-oxazolidin-5-yl]-ethylamino}-methyl)-phenyl]-pyridine-2-carbonitrile], for which the MIC was 1 µg/mL (≈ 2.13 µM) in assay [1]; 16 µg/mL (≈ 34 µM) in assay [2]; at most 0.063 µg/mL in assay [3]; 2 µg/mL (≈ 4.25 µM) in assay [4]; 0.5 µg/mL (≈ 1.06 µM) in assay [5].
Taken in the same sequence, the figures for `N#Cc1ccc(O)c(-c2cccc(CNCC[C@H]3CN(c4ccc5c(n4)NC(=O)CO5)C(=O)O3)c2)c1` [Example 45, 6-hydroxy-3′-({2-[(S)-2-oxo-3-(3-oxo-3,4-dihydro-2H-pyrido[3,2-b][1,4]oxazin-6-yl)-oxazolidin-5-yl]-ethylamino}-methyl)-biphenyl-3-carbonitrile] were 2 µg/mL (≈ 4.12 µM), over 8 µg/mL, 0.125 µg/mL (≈ 0.257 µM), 4 µg/mL (≈ 8.24 µM) and 2 µg/mL (≈ 4.12 µM).
On to `O=C1COc2ccc(N3C[C@H](CCNCc4cccc(-c5cccc(OC[C@@H]6C[C@@H](O)[C@@H](O)C6)n5)c4)OC3=O)nc2N1` (racemic) [Example 69, 6-[(S)-5-(2-{3-[6-((1rs,3R,4S)-3,4-dihydroxy-cyclopentylmethoxy)-pyridin-2-yl]-benzylamino}-ethyl)-2-oxo-oxazolidin-3-yl]-4H-pyrido[3,2-b][1,4]oxazin-3-one], for which, in assay [1], the “MIC for A. baumannii T6474” value came out at 1 µg/mL. In addition, the “MIC for E. faecium A949” value in assay [2] turned out to be 8 µg/mL. In addition, the “MIC for M. catarrhalis A894” value in assay [3] came to 0.063 µg/mL. Further, the “MIC for S. aureus A798” value in assay [4] was 0.25 µg/mL. Besides, in assay [5], the “MIC for S. aureus ATCC29213” value worked out at 1 µg/mL.
As for `CNC(=O)COc1cccc(-c2cccc(CNCC[C@H]3CN(c4ccc5c(n4)NC(=O)CO5)C(=O)O3)c2)c1` [Example 78, N-methyl-2-[3′-({2-[(S)-2-oxo-3-(3-oxo-3,4-dihydro-2H-pyrido[3,2-b][1,4]oxazin-6-yl)-oxazolidin-5-yl]-ethylamino}-methyl)-biphenyl-3-yloxy]-acetamide], the MIC in assay [1] worked out at 1 µg/mL (≈ 1.88 µM); in assay [2] it was 8 µg/mL (≈ 15 µM); in assay [3], 0.031 µg/mL (≈ 0.0583 µM); in assay [4] it was 1 µg/mL (≈ 1.88 µM); in assay [5], 0.5 µg/mL (≈ 0.941 µM).
Regarding `N#Cc1cccc(-c2cccc(CNCC[C@H]3CN(c4ccc5c(c4)NC(=O)CS5)C(=O)O3)c2)c1` [Example 3, 3′-({2-[(S)-2-oxo-3-(3-oxo-3,4-dihydro-2H-benzo[1,4]thiazin-6-yl)-oxazolidin-5-yl]-ethylamino}-methyl)-biphenyl-3-carbonitrile], the MIC was 0.125 µg/mL (≈ 0.258 µM) in assay [1]; 0.5 µg/mL (≈ 1.03 µM) in assay [2]; at most 0.016 µg/mL in assay [3]; 0.063 µg/mL (≈ 0.13 µM) in assay [4]; 0.063 µg/mL (≈ 0.13 µM) in assay [5].
Regarding `COc1ccc(OC)c(-c2cccc(CNCC[C@H]3CN(c4ccc5c(n4)NC(=O)CO5)C(=O)O3)c2)c1` [Example 64, 6-((S)-5-{2-[(2′,5′-dimethoxy-biphenyl-3-ylmethyl)-amino]-ethyl}-2-oxo-oxazolidin-3-yl)-4H-pyrido[3,2-b][1,4]oxazin-3-one], the MIC in assay [1] was 16 µg/mL (≈ 31.7 µM); in assay [2], 16 µg/mL (≈ 31.7 µM); in assay [3], at most 0.063 µg/mL; in assay [4], 2 µg/mL (≈ 3.96 µM); in assay [5] it was 1 µg/mL (≈ 1.98 µM).
`N#Cc1ccc(O)c(-c2cc(CNCC[C@@H]3CN(c4ccc5c(c4)NC(=O)CS5)C(=O)O3)ccn2)c1` [Example 38, 4-hydroxy-3-[4-({2-[(R)-2-oxo-3-(3-oxo-3,4-dihydro-2H-benzo[1,4]thiazin-6-yl)-oxazolidin-5-yl]-ethylamino}-methyl)-pyridin-2-yl]-benzonitrile]: the MIC in assay [1] is 0.063 µg/mL (≈ 0.126 µM); in assay [2] it was 0.125 µg/mL (≈ 0.249 µM); in assay [3], at most 0.016 µg/mL; in assay [4] it was at most 0.016 µg/mL; in assay [5], at most 0.016 µg/mL.
For the compound `COc1cccc(-c2cccc(CNCC[C@H]3CN(c4ccc5c(n4)NC(=O)CO5)C(=O)O3)c2O)n1` [Example 93, 6-((S)-5-{2-[2-hydroxy-3-(6-methoxy-pyridin-2-yl)-benzylamino]-ethyl}-2-oxo-oxazolidin-3-yl)-4H-pyrido[3,2-b][1,4]oxazin-3-one], the MIC was 0.063 µg/mL (≈ 0.128 µM) in assay [1]; 0.25 µg/mL (≈ 0.509 µM) in assay [2]; at most 0.016 µg/mL in assay [3]; at most 0.016 µg/mL in assay [4]; at most 0.016 µg/mL in assay [5].
Consider `O=C1COc2ccc(N3C[C@H](CCNCc4cccc(-c5cccc(O)c5)c4)OC3=O)nc2N1` [Example 63, 6-((S)-5-{2-[(3′-hydroxy-biphenyl-3-ylmethyl)-amino]-ethyl}-2-oxo-oxazolidin-3-yl)-4H-pyrido[3,2-b][1,4]oxazin-3-one], for which the MIC in assay [1] is 0.5 µg/mL (≈ 1.09 µM); in assay [2], 16 µg/mL (≈ 34.7 µM); in assay [3], at most 0.063 µg/mL; in assay [4], 1 µg/mL (≈ 2.17 µM); in assay [5] it was 1 µg/mL (≈ 2.17 µM).
For the compound `COc1cc(-c2cccc(CNCC[C@H]3CN(c4ccc5c(n4)NC(=O)CO5)C(=O)O3)c2)cnn1` [Example 59, 6-((S)-5-{2-[3-(6-methoxy-pyridazin-4-yl)-benzylamino]-ethyl}-2-oxo-oxazolidin-3-yl)-4H-pyrido[3,2-b][1,4]oxazin-3-one], the MIC was 2 µg/mL (≈ 4.2 µM) in assay [1]; over 8 µg/mL in assay [2]; 0.125 µg/mL (≈ 0.262 µM) in assay [3]; 4 µg/mL (≈ 8.39 µM) in assay [4]; 2 µg/mL (≈ 4.2 µM) in assay [5].
Turning to `O=C1COc2ccc(N3C[C@H](CCNCc4cccc(-c5cccc(OCCCO)c5)c4)OC3=O)nc2N1` [Example 53, 6-[(S)-5-(2-{[3′-(3-hydroxy-propoxy)-biphenyl-3-ylmethyl]-amino}-ethyl)-2-oxo-oxazolidin-3-yl]-4H-pyrido[3,2-b][1,4]oxazin-3-one], the MIC was 4 µg/mL (≈ 7.71 µM) in assay [1]; 16 µg/mL (≈ 30.9 µM) in assay [2]; 0.125 µg/mL (≈ 0.241 µM) in assay [3]; 1 µg/mL (≈ 1.93 µM) in assay [4]; 2 µg/mL (≈ 3.86 µM) in assay [5].
Regarding `O=C1COc2ccc(N3C[C@H](CCNCc4cccc(-c5cccc(OCCCCO)c5)c4)OC3=O)nc2N1` [Example 67, 6-[(S)-5-(2-{[3′-(4-hydroxy-butoxy)-biphenyl-3-ylmethyl]-amino}-ethyl)-2-oxo-oxazolidin-3-yl]-4H-pyrido[3,2-b][1,4]oxazin-3-one], the MIC in assay [1] turned out to be 2 µg/mL (≈ 3.76 µM); in assay [2] it was 8 µg/mL (≈ 15 µM); in assay [3], 0.063 µg/mL (≈ 0.118 µM); in assay [4] it was 0.5 µg/mL (≈ 0.939 µM); in assay [5] it was 1 µg/mL (≈ 1.88 µM).
